Experimental data taken from patent publication US20250066337A1, “Amorphous Form of (S)-2-(5-((3-Ethoxypyridin-2-YL)Oxy)Pyridin-3-YL)-N-(Tetrahydrofuran-3-YL)Pyrimidine-5-Carboxamide” (Pfizer Inc., priority 2021, published 2025).

Molecular target: hDGAT2 (Homo sapiens (Human), UniProt Q96PD7)
Experiment: In vitro DGAT2 assay, determination of IC50 values
Format: biochemical
Conditions: geometric mean; hDGAT2 membrane fraction, [1-14C]decanoyl-CoA and 1,2-didecanoyl-sn-glycerol substrates
Method: For the expression of hDGAT2, SF9 cells (20 L) grown in Sf900II media were infected with hDGAT2 baculovirus at a multiplicity of infection of 1 in a Wave Bioreactor System 20/50P wave bag (GE Healthcare). After 40 hours of infection, the cells were then harvested by centrifugation at 5,000×g. The cell pellets were washed by resuspending in phosphate buffered saline (PBS) and collected by centrifugation at 5,000×g. The cell paste was flash frozen in liquid N2 and stored at −80° C. until needed. All operations below were at 4° C. unless otherwise noted. The cells were resuspended in lysis buffer (50 mM Tris-HCl, pH 8.0, 250 mM sucrose) including 1 mM ethylenediaminetetraacetic acid (EDTA) and the complete protease inhibitor cocktail (Roche Diagnostics) at a ratio of 3 ml buffer per 1 g cell paste. The cells were lysed by dounce homogenizer. The cell debris was removed by centrifugation at 1,000×g for 20 min, and the supernatant was centrifuged at 100,000×g for 1 hour. […]
For determination of IC50 values, the reactions were carried out in 384-well white Polyplates (Perkin Elmer) in a total volume of 20 μL. […] Plates were centrifuged at 2,000×g for 1 minute in an Allegra 6R Centrifuge (Beckman Coulter) and then were sealed again with fresh covers before reading in a 1450 Microbeta Wallac Trilux Scintillation Counter (Perkin Elmer).

Chain of hDGAT2 (Q96PD7 whole entry): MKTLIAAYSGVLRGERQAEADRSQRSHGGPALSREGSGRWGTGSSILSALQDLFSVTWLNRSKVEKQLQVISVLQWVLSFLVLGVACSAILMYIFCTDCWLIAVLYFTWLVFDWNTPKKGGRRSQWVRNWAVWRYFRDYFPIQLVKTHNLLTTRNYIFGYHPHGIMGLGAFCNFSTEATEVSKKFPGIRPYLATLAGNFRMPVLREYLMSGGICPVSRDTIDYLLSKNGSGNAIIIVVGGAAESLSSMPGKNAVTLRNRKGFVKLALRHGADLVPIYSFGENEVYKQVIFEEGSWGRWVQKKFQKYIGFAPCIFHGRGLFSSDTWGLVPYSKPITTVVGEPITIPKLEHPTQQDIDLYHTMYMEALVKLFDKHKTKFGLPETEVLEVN

`CCOc1cccnc1Oc1cncc(-c2ncc(C(=O)N[C@H]3CCOC3)cn2)c1` [Example 1, (S)-2-(5-((3-ethoxypyridin-2-yl)oxy)pyridin-3-yl)-N-(tetrahydrofuran-3-yl)pyrimidine-5-carboxamide] showed an IC50 of 0.0172 µM.
